Data on 22 compounds can be found in ChEMBL document CHEMBL3132827, “Quinazoline and tetrahydropyridothieno[2,3-d]pyrimidine derivatives as irreversible EGFR tyrosine kinase inhibitors: influence of the position 4 substituent” (Medchemcomm, 2013).

Assay [1] in a line: Cytotoxicity against human SKBR3 cells expressing wild type EGFR assessed as growth inhibition incubated for 1 hr prior to EGF challenge measured after 72 hrs by luciferase reporter gene assay. Format: functional, cell-based. As to conditions: SK-BR-3.
Assay [2] has as its system NCI-H1975. The assay can be described thus: cells. Type of assay: functional, cell-based. To be noted: Homo sapiens.
For assay [3], the target named is Epidermal growth factor receptor (Homo sapiens, UniProt P00533). In words: Inhibition of recombinant wild type EGFR kinase(unknown origin) after 30 mins in presence of [gamma32P]ATP.
Epidermal growth factor receptor (Homo sapiens, UniProt P00533), sequence (P00533 whole entry): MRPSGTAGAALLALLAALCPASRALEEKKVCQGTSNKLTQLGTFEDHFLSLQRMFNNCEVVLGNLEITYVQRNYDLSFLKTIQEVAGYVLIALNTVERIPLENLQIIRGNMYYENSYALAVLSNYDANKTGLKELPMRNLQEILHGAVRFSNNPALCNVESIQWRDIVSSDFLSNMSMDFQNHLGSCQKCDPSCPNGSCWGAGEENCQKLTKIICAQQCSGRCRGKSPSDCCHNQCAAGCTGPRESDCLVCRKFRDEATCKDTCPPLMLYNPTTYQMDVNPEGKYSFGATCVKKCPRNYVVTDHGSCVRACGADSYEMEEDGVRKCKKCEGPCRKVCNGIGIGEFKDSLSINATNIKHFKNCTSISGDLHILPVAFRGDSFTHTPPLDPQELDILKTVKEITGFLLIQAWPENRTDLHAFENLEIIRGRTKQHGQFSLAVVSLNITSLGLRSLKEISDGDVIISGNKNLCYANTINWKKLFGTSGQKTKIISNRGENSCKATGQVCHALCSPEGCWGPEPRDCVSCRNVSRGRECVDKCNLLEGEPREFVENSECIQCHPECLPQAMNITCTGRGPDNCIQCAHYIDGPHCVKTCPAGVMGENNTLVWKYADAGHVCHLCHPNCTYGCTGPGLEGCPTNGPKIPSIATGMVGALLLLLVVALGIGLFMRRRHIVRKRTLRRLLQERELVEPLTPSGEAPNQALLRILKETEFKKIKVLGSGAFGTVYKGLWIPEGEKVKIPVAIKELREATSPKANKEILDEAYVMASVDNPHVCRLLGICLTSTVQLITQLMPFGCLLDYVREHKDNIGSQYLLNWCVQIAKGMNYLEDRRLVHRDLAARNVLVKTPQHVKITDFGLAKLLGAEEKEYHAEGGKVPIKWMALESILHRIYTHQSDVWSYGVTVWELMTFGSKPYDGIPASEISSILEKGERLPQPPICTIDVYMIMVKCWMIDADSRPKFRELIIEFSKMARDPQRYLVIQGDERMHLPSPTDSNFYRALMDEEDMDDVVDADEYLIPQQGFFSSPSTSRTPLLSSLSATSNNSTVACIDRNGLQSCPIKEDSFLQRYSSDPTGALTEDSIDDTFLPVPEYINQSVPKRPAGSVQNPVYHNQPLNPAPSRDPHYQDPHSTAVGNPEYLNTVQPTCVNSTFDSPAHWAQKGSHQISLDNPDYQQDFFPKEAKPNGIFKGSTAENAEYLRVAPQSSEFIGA
Assay [4] concerns the target Epidermal growth factor receptor (Homo sapiens, UniProt P00533, L858R/T790M). Format: cell-based, NCI-H1975.

Epidermal growth factor receptor (Homo sapiens, UniProt P00533, L858R/T790M), sequence (P00533 25-1210 T790M/L858R limits assumed): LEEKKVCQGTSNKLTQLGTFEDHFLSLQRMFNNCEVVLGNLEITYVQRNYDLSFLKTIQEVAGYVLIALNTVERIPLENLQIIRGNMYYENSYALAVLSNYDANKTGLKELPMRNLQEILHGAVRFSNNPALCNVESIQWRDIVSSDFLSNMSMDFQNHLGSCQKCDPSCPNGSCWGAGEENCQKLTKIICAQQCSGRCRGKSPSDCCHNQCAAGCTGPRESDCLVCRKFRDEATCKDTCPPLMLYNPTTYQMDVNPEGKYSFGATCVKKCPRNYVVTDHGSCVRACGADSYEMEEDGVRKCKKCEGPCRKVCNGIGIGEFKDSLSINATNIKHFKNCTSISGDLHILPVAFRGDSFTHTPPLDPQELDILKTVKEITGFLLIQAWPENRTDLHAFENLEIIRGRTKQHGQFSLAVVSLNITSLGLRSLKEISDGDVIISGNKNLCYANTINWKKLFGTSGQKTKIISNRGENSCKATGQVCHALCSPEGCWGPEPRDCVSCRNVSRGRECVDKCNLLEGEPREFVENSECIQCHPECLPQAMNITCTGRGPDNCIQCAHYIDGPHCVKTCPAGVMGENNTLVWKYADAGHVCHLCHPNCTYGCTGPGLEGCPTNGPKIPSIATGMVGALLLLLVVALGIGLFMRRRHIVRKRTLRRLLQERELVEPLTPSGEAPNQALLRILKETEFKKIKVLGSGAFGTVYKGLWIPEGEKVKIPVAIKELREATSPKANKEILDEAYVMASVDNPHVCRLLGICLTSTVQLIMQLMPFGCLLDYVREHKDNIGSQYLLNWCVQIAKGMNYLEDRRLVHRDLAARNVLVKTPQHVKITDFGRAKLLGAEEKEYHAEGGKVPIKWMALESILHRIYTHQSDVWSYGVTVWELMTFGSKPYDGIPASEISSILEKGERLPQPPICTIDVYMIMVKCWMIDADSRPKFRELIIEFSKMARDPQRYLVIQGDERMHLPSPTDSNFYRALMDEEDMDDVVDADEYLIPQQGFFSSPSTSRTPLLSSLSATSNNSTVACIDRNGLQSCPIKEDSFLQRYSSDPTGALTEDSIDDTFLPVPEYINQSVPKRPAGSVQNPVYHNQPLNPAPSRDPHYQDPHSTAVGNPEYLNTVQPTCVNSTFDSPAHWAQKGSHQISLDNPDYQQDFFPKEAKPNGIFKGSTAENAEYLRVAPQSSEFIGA

With `C=CC(=O)N1CCc2c(sc3ncnc(Nc4ccc(Br)c(C)c4)c23)C1`, the IC50 was > 40000 nM in assay [1], > 40000 nM in assay [2] and 4.4 nM in assay [3].

Consider `C=CC(=O)Nc1ccc2ncnc(Nc3ccc(OC)cc3OC)c2c1`, for which the IC50 was 6890 nM in assay [1] and 13900 nM in assay [2].

For `C=CC(=O)N1CCc2c(sc3ncnc(Nc4cccc(CC)c4)c23)C1`, the results for the concentration for half-maximal inhibition (IC50) in assay [1], in assay [2] and in assay [3] were 3200 nM, 23800 nM and 8.73 nM, respectively.

Consider `C=CC(=O)Nc1ccc2ncnc(Nc3ccc(S(N)(=O)=O)cc3)c2c1`, for which the IC50 in assay [1] is 2500 nM; in assay [2], > 40000 nM; in assay [3], 76.5 nM.

Consider `C=CC(=O)Nc1ccc2ncnc(Nc3ccc(Br)c(OC)c3)c2c1`, for which the IC50 in assay [1] amounted to 360 nM; in assay [2], 400 nM; in assay [3] it was 2.5 nM.

Regarding `C=CC(=O)Nc1ccc2ncnc(Nc3cccc(C)c3F)c2c1`, the concentration for half-maximal inhibition (IC50) in assay [1] is 1860 nM; in assay [4], 111000 nM; in assay [2] it was 390 nM; in assay [3], 1.5 nM.

Regarding `C=CC(=O)Nc1ccc2ncnc(Nc3ccc(S(=O)(=O)Nc4ccccn4)cc3)c2c1`, the IC50 in assay [1] is 390 nM; in assay [4], 4390 nM; in assay [2], > 40000 nM; in assay [3], 9.8 nM.

As for `C=CC(=O)Nc1ccc2ncnc(Nc3cccc(Br)c3)c2c1`, the IC50 in assay [1] turned out to be 200 nM; in assay [2] it was 440 nM.

Take `C=CC(=O)Nc1ccc2ncnc(Nc3ccc(Br)cc3F)c2c1`: the IC50 in assay [1] was 510 nM; in assay [4], 36 nM; in assay [2], 280 nM; in assay [3], 2.1 nM.

Turning to `C=CC(=O)Nc1ccc2ncnc(Nc3c(F)cccc3Br)c2c1`, the IC50 in assay [1] was found to be 230 nM; in assay [2], 260 nM; in assay [3], 2.2 nM.

With `C=CC(=O)Nc1ccc2ncnc(Nc3cccc(CC)c3)c2c1`, the 50% inhibitory concentration (IC50) was determined as 2820 nM in assay [1], 275 nM in assay [4], 680 nM in assay [2] and 2.7 nM in assay [3].

`C=CC(=O)Nc1ccc2ncnc(NC3CCCCC3)c2c1`: the IC50 in assay [1] is 400 nM; in assay [4], 2800 nM; in assay [2], > 40000 nM; in assay [3], 3.4 nM.

For the compound `C=CC(=O)Nc1ccc2ncnc(Nc3ccc(Br)cc3C)c2c1`, the results for the IC50 in assay [1], in assay [2] and in assay [3] were 630 nM, 1860 nM and 2.2 nM, respectively.

In the case of `C=CC(=O)N1CCc2c(sc3ncnc(NC4CCCCC4)c23)C1`, the IC50 in assay [1] was > 40000 nM; in assay [4], > 5000 nM; in assay [2], > 40000 nM; in assay [3] it was > 150 nM.

On to `C=CC(=O)N1CCc2c(sc3ncnc(Nc4ccc(CC)cc4)c23)C1`, for which the IC50 in assay [1] was 6200 nM; in assay [4], 130 nM; in assay [2] it was 15200 nM; in assay [3], 7.38 nM.

As for `C=CC(=O)Nc1ccc2ncnc(Nc3ccc(Br)c(C)c3)c2c1`, the half-maximal inhibitory concentration (IC50) in assay [1] turned out to be 1420 nM; in assay [2] it was 1820 nM; in assay [3], 2.3 nM.

In the case of `C=CC(=O)Nc1ccc2ncnc(Nc3ccc(S(=O)(=O)Nc4nccs4)cc3)c2c1`, the IC50 in assay [1] is 4000 nM; in assay [2], > 40000 nM; in assay [3], 43.7 nM.

In the case of `C=CC(=O)N1CCc2c(sc3ncnc(Nc4ccc(Br)cc4F)c23)C1`, the results for the half-inhibitory concentration (IC50) in assay [1], in assay [2] and in assay [3] were 2300 nM, > 40000 nM and 3.71 nM, respectively.

In the case of `C=CC(=O)Nc1ccc2ncnc(Nc3ccc(S(=O)(=O)NC(=N)N)cc3)c2c1`, the IC50 in assay [1] is > 40000 nM; in assay [2] it was > 40000 nM; in assay [3], 53.3 nM.

Regarding `C=CC(=O)Nc1ccc2ncnc(Nc3ccccc3CC)c2c1`, the IC50 is 7700 nM in assay [1], 2000 nM in assay [4], 16000 nM in assay [2] and 18.9 nM in assay [3].

Regarding `C=CC(=O)N1CCc2c(sc3ncnc(Nc4cccc(C)c4F)c23)C1`, the IC50 in assay [1] was determined as 1400 nM; in assay [4] it was 280 nM; in assay [2] it was 33800 nM; in assay [3], 3.95 nM.

For the compound `C=CC(=O)Nc1ccc2ncnc(Nc3ccc(CC)cc3)c2c1`, the concentration for half-maximal inhibition (IC50) was determined as 1140 nM in assay [1], 15700 nM in assay [2] and 3.2 nM in assay [3].
